# ChEMBL document CHEMBL4118085, “Plasma Kallikrein Inhibitors for the Treatment of Retinal Vascular Permeability Associated with Diabetic Retinopathy and Diabetic Macular Edema” (ACS Med Chem Lett, 2017)
# Target: Plasma kallikrein (Homo sapiens, UniProt P03952)
# Assay: Inhibition of human plasma kallikrein using H-Pro-Phe-Arg-AMC as substrate after 1 hr by fluorescence assay
# Chain of Plasma kallikrein (P03952 20-390 limits assumed): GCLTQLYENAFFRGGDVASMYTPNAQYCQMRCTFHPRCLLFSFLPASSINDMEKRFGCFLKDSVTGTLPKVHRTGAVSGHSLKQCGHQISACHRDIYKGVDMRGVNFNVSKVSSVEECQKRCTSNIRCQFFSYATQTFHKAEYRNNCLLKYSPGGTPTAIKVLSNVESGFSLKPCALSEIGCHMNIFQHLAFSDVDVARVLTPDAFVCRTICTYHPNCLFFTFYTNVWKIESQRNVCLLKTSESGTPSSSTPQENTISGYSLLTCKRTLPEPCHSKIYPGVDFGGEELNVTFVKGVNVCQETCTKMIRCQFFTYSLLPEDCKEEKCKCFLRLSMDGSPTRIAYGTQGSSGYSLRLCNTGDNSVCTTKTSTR
# Chain of Plasma kallikrein (P03952 391-638 limits assumed): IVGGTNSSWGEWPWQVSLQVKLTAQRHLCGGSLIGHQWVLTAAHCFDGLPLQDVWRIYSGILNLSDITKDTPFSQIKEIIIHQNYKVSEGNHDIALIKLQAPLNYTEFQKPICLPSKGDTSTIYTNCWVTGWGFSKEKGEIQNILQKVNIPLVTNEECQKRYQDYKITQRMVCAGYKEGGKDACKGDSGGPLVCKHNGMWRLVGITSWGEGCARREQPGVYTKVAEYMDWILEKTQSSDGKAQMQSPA
row,Compound,IC50 [nM]
1,Nc1ccc2c(n1)CCC2NC(=O)c1cnn(Cc2ccc(Cn3ccccc3=O)cc2)c1 (stereo not given),9
2,Cc1ccc2cc(Cn3cc(C(=O)N[C@H]4CCc5nc(N)ccc54)nn3)ccc2n1,1900
3,C[C@H]1CCN(c2ccc(Cn3cc(C(=O)N[C@@H]4CCc5nc(N)ccc54)cn3)cn2)C1,19

# Molecules with a lower IC50, results first:
row,IC50 [nM],Compound
1,4,Cc1cc(N)nc2c1C(NC(=O)c1cnn(Cc3ccc(Cn4ccccc4=O)cc3)c1)CC2 (stereo not given)
2,1,Cc1cnn(Cc2ccc(Cn3nc(C(=O)N[C@@H]4CCc5c4ccnc5N)cc3C(F)(F)F)cc2)c1
